Measured values reported in publication PMC5078989, “Targeted inhibition of the COP9 signalosome for treatment of cancer” (Nature Communications, 2016).

Tested on: panel of cancer cell lines
Assay: Cell viability (CellTiter-Glo) dose-response across cancer cell line panel;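 further: after 72 h compound incubation with CellTiter-Glo ATP readout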
Type: cell-based, human
Details: Homo sapiens
Source text: Next, we explored the effect of CSN5 inhibition on the viability of cancer cells. To obtain a comprehensive picture, we generated dose–response curves with a CSN5 inhibitor across more than 500 cancer cell lines in a previously described standardized setting[47] (Supplementary Data 1).
A standardized CellTiter-Glo Assay (Promega #G7570) based on the quantification of ATP was applied according to the manufacturer's protocol to measure the amount of viable cells in culture. In brief, cells were seeded into 384-well plates at optimal density for each cell line. After 4 h, compounds were added at different concentrations in growth medium and incubated for another 72 h in a humidifying chamber at 37 °C and 5% CO2. […] EC50 values were calculated from the plot of percentage of inhibition versus inhibitor concentration using the nonlinear regression analysis software Origin 7.5SR6 (OriginLab Corp.).

EC50 (NALM-6, NALM-6): 8.08 nM | EC50 (NB1, NB-1): 7.56 nM | EC50 (NB-4, NB-4): 4.38 nM | EC50 (NCI-H28, NCI-H28): 10.1 nM | EC50 (NCI-H82, cell line NCI-H82): 1.25 nM | EC50 (NCI-H146, cell line NCI-H146): 10.9 nM | EC50 (NCI-H196, NCI-H196): 27 nM | EC50 (NCI-H226, cell line NCI-H226): 14.9 nM | EC50 (NCI-H358, NCI-H358): 10.3 nM | EC50 (NCI-H441, NCI-H441): 15.5 nM | EC50 (NCI-H460, cell line NCI-H460): 85.2 nM | EC50 (NCI-H520, cell line NCI-H520): 7.91 nM | EC50 (NCI-H524, NCI-H524): 7.72 nM | EC50 (NCI-H596, NCI-H596): 21 nM | EC50 (NCI-H647, cell line NCI-H647): 13.7 nM | EC50 (NCI-H650, NCI-H650): 118 nM | EC50 (NCI-H661, cell line NCI-H661): 17.3 nM | EC50 (NCI-H716, NCI-H716): 5.09 nM | EC50 (NCI-H727, NCI-H727): 27.4 nM | EC50 (NCI-H810, cell line NCI-H810): 11.8 nM | EC50 (NCI-H838, NCI-H838): 28.5 nM | EC50 (NCI-H841, NCI-H841): 18 nM | EC50 (NCI-H1048, NCI-H1048): 18.6 nM | EC50 (NCI-H1092, NCI-H1092): 19 nM | EC50 (NCI-H1184): 7.24 nM | EC50 (NCI-H1299, cell line NCI-H1299): 18.5 nM | EC50 (NCI-H1341): 11 nM | EC50 (NCI-H1355, cell line NCI-H1355): 27.8 nM | EC50 (NCI-H1437, cell line NCI-H1437): 19.5 nM | EC50 (NCI-H1563, cell line NCI-H1563): 57.8 nM | EC50 (NCI-H1568, cell line NCI-H1568): 12.2 nM | EC50 (NCI-H1573, NCI-H1573): 38.2 nM | EC50 (NCI-H1581, cell line NCI-H1581): 12.9 nM | EC50 (NCI-H1623, NCI-H1623): 14 nM | EC50 (NCI-H1650, cell line NCI-H1650): 3.29 nM | EC50 (NCI-H1651, NCI-H1651): 8.83 nM | EC50 (NCI-H1666, cell line NCI-H1666): 7.68 nM | EC50 (NCI-H1693, NCI-H1693): 5.61 nM | EC50 (NCI-H1703, cell line NCI-H1703): 9.11 nM | EC50 (NCI-H1734, NCI-H1734): 9.07 nM | EC50 (NCI-H1781, cell line NCI-H1781): 12.9 nM | EC50 (NCI-H1792, cell line NCI-H1792): 51.8 nM | EC50 (NCI-H1793, cell line NCI-H1793): 55.3 nM | EC50 (NCI-H1869): 3.35 nM | EC50 (NCI-H1944, NCI-H1944): 55.2 nM | EC50 (NCI-H1975, cell line NCI-H1975): 9.64 nM | EC50 (NCI-H2023, NCI-H2023): 24.1 nM | EC50 (NCI-H2073, NCI-H2073): 26.5 nM | EC50 (NCI-H2087, cell line NCI-H2087): 7.21 nM | EC50 (NCI-H2122, cell line NCI-H2122): 22.5 nM | EC50 (NCI-H2126, cell line NCI-H2126): 24.4 nM | EC50 (NCI-H2170, cell line NCI-H2170): 15.6 nM | EC50 (NCI-H2172, NCI-H2172): 51.5 nM | EC50 (NCI-H2405, NCI-H2405): 16.8 nM | EC50 (NCI-H2452, NCI-H2452): 21.7 nM | EC50 (NCI-H3255, NCI-H3255): 8.64 nM | EC50 (NOMO-1, NOMO-1): 11.9 nM | EC50 (NUGC-3, cell line NUGC-3): 11.9 nM | EC50 (NUGC-4, cell line NUGC-4): 16.2 nM | EC50 (OAW-42, OAW42): 14.4 nM | EC50 (OC 316): 8.98 nM | EC50 (OC-314, OC 314): 8.6 nM | EC50 (OCI-AML2, OCI-AML2): 8.61 nM | EC50 (OCI-AML-3, OCI-AML3): 5.45 nM | EC50 (OCI-AML-5, OCI-AML5): 9.17 nM | EC50 (OCI-LY19, OCI-LY-19): 11.2 nM | EC50 (OCI-Ly3, OCI-LY3): 5.53 nM | EC50 (OCI-Ly10, OCI-LY10): 5.53 nM | EC50 (OCI-M1, OCI-M1): 2.41 nM | EC50 (OE19, cell line OE19): 13.4 nM | EC50 (OE33, cell line OE33): 20.1 nM | EC50 (ONCO-DG-1, ONCO-DG-1): 11.6 nM | EC50 (OS-RC-2, OS-RC-2): 18.7 nM | EC50 (OUMS-23, OUMS-23): 14.1 nM | EC50 (OV7, OV7): 8.26 nM | EC50 (OV56, cell line OV56): 13.6 nM | EC50 (OV-90, OV-90): 15 nM | EC50 (OVCAR-4, cell line OVCAR-4): 12 nM | EC50 (OVCAR-8, cell line OVCAR-8): 19.3 nM | EC50 (OVISE): 9.83 nM | EC50 (OVSAHO): 9.15 nM | EC50 (P3HR-1, P3HR-1): 8.29 nM | EC50 (P12-Ichikawa): 1.82 nM | EC50 (P31-FUJ, P31/FUJ): 5.93 nM | EC50 (PANC-1, cell line PANC-1): 8.76 nM | EC50 (PANC-03-27, cell line Panc 03.27): 10.6 nM | EC50 (PC-14, cell line PC-14): 15.2 nM | EC50 (PE/CA-PJ41 (clone D2)): 9.74 nM | EC50 (PEER): 11.7 nM | EC50 (PF-382, PF-382): 2.73 nM | EC50 (PL-21, PL-21): 11.7 nM | EC50 (PLC-PRF-5, PLC/PRF/5): 7.53 nM | EC50 (PSN1, cell line PSN1): 10.4 nM | EC50 (PaTu 8988s, PA-TU-8988S): 13.7 nM | EC50 (Panc 02.03, cell line Panc 02.03): 11 nM | EC50 (Panc 04.03, cell line Panc 04.03): 22.6 nM | EC50 (Panc1005, cell line Panc 10.05): 5.21 nM | EC50 (RCC10RGB): 5.1 nM | EC50 (RCH-ACV): 2.1 nM | EC50 (RD): 7.69 nM | EC50 (REH): 4.69 nM | EC50 (RKN): 16.4 nM | EC50 (RMUG-S): 67.5 nM | EC50 (RPMI 8402, RPMI-8402): 5.89 nM | EC50 (RPMI-7951, cell line RPMI-7951): 10.1 nM | EC50 (RPMI-8226, cell line RPMI 8226): 3.33 nM | EC50 (RS4-11, cell line RS4;11): 1.7 nM | EC50 (RT-112, RT-112): 5.2 nM | EC50 (RVH-421, RVH-421): 8.58 nM | EC50 (Raji, cell line Raji): 10.7 nM | EC50 (Rec1, cell line REC-1): 9.53 nM | EC50 (Rh18, cell line RH-18): 31.3 nM | EC50 (Rh41, cell line RH-41): 7.35 nM | EC50 (Ri-1, RI-1): 4.9 nM | EC50 (SCaBER, cell line SCaBER): 14.3 nM | EC50 (SEM): 2.39 nM | EC50 (SET-2, cell line Set-2): 10.4 nM | EC50 (SF-126, SF126): 13.1 nM | EC50 (SF-295, cell line SF-295): 11.8 nM | EC50 (SH-4, SH-4): 4.59 nM | EC50 (SH-10-TC, cell line SH-10-TC): 16.1 nM | EC50 (SHP77, SHP-77): 12.1 nM | EC50 (SIG-M5, SIG-M5): 5.14 nM | EC50 (SJRH30, cell line SJRH30): 16.5 nM | EC50 (SJSA-1, cell line SJSA-1): 26.6 nM | EC50 (SK-BR-3, cell line SK-BR-3): 6.43 nM | EC50 (SK-CO-1, SK-CO-1): 5.8 nM | EC50 (SK-ES1, cell line SK-ES-1): 9.79 nM | EC50 (SK-LMS-1, SK-LMS-1): 8.32 nM | EC50 (SK-LU-1, SK-LU-1): 9.51 nM | EC50 (SK-MEL3, cell line SK-MEL-3): 8.95 nM | EC50 (SK-MEL-1, SK-MEL-1): 18.7 nM | EC50 (SK-MEL-2, cell line SK-MEL-2): 10.4 nM | EC50 (SK-MEL-5, cell line SK-MEL-5): 8.81 nM | EC50 (SK-MEL-24, SK-MEL-24): 19.7 nM | EC50 (SK-MEL-30, cell line SK-MEL-30): 10.7 nM | EC50 (SK-MES-1, cell line SK-MES-1): 15.8 nM | EC50 (SK-N-AS, cell line SK-N-AS): 7.25 nM | EC50 (SK-N-DZ): 8.89 nM | EC50 (SK-N-FI, cell line SK-N-FI): 11.5 nM | EC50 (SK-N-SH): 7.2 nM | EC50 (SK-OV-3, cell line SK-OV-3): 26.8 nM | EC50 (SK-UT-1, SK-UT-1): 8.52 nM | EC50 (SKM-1, SKM-1): 3.7 nM | EC50 (SKNBE2, SK-N-BE(2)): 8.65 nM | EC50 (SNG-M): 7.04 nM | EC50 (SNU1, SNU-1): 17 nM | EC50 (SNU878, SNU-878): 22.9 nM | EC50 (SNU-16, cell line SNU-16): 5.79 nM | EC50 (SNU-119): 19.4 nM | EC50 (SNU-216, SNU-216): 15 nM | EC50 (SNU-449, SNU-449): 29.9 nM | EC50 (SNU-475, SNU-475): 24.7 nM | EC50 (SNU-626): 15.1 nM | EC50 (SNU-738): 32.7 nM | EC50 (SNU-1079): 8.89 nM | EC50 (SNU-C1, SNU-C1): 3.82 nM | EC50 (SNU-C5): 16.7 nM
Compound: CC(C)C[C@H](NC(=O)[C@H](Cc1ccccc1)NC(=O)c1cnccn1)B(O)O [Bortezomib]
